This is an account of results in ChEMBL document CHEMBL1150291, “Discovery of potent, orally bioavailable, selective 5-HT1A/B/D receptor antagonists” (J Med Chem, 2008).

Data set [1] is described as follows: Volume of distribution at steady state in rat at 1 mg/kg, iv. The format is ADME, organism-based. Further details: dose 1 mg/kg, route intravenous. The following applies: in vivo, read-out: Vdss.
Data set [2] is described as follows: Clearance in rat at 1 mg/kg, iv. The format is ADME, organism-based. On the set-up: dose 1 mg/kg, route intravenous. The following applies: in vivo.
Data set [3] has as its target Sodium-dependent serotonin transporter (Homo sapiens, UniProt P31645). Nature of the data set: Displacement of radioligand from human cloned SERT.
For data set [4], the target named is 5-hydroxytryptamine receptor 2A (Homo sapiens, UniProt P28223). Nature of the data set: Displacement of radioligand from human cloned 5HT2A receptor.
5-hydroxytryptamine receptor 2A, sequence (P28223 whole entry): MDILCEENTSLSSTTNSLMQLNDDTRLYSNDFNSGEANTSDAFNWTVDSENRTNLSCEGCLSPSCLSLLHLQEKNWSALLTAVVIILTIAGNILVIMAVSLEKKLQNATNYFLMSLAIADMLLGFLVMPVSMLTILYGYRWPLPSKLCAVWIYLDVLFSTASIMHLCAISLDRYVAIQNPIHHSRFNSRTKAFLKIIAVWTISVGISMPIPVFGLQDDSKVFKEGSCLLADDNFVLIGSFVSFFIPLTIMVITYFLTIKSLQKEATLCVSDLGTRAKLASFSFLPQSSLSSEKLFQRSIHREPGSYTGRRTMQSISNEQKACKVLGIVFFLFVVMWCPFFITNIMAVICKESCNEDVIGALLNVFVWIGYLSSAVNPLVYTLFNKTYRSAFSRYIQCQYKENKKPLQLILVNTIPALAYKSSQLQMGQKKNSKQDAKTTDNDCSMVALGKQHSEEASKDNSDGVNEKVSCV
Data set [5] concerns the target 5-hydroxytryptamine receptor 6 (Homo sapiens, UniProt P50406). Nature of the data set: Displacement of radioligand from human cloned 5HT6 receptor.
The target in data set [6] is T1, 5-hydroxytryptamine receptor 1F (Homo sapiens, UniProt P30939).
T1 sequence (P30939 whole entry): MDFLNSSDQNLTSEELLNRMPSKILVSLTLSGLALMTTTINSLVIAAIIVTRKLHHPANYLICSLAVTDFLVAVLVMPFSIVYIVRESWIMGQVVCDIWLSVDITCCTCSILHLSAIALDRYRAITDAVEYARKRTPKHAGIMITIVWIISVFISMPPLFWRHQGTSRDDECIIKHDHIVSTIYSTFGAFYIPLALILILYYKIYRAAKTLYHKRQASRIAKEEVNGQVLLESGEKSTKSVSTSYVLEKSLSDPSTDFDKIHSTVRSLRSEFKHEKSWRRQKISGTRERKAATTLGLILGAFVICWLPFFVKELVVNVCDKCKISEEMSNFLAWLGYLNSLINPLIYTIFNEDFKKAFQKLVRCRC
Nature of the data set: Displacement of radioligand from human cloned 5HT1F receptor.

Data set [7] has as its target 5-hydroxytryptamine receptor 7 (Homo sapiens, UniProt P34969). Nature of the data set: Displacement of radioligand from human cloned 5HT7 receptor.
Data set [8] deals with Sodium-dependent serotonin transporter (Rattus norvegicus, UniProt P31652).
Description: Inhibition of [3H]5HT uptake at SERT in rat cortical synaptosomes
Data set [9] in a line: Ratio of drug level in brain to blood in rat at 3 mg/kg, po. The format is ADME, organism-based. On the set-up: dose 3 mg/kg, route oral. The following applies: read-out: BBR.
The target of data set [10] is 5-hydroxytryptamine receptor 5A (Homo sapiens, UniProt P47898).
5-hydroxytryptamine receptor 5A, sequence (P47898 whole entry): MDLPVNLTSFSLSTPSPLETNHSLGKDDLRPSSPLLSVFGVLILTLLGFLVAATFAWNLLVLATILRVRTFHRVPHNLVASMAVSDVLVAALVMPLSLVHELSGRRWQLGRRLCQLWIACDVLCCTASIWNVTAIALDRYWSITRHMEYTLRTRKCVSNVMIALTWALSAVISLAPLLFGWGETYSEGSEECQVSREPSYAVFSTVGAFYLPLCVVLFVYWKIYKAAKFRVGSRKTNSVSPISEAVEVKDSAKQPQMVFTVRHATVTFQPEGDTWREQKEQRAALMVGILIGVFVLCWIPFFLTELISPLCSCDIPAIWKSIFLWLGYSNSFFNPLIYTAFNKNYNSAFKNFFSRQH
Description: Displacement of radioligand from human cloned 5HT5A receptor
The nature of data set [11]: Cmax in rat brain at 3 mg/kg, po. The format is ADME, organism-based. On the set-up: dose 3 mg/kg, route oral.
Data set [12] addresses 5-hydroxytryptamine receptor 1E (Homo sapiens, UniProt P28566). Nature of the data set: Displacement of radioligand from human cloned 5HT1E receptor.
Data set [13] has as its target T2, 5-hydroxytryptamine receptor 1D (Homo sapiens, UniProt P28221). Nature of the data set: Displacement of [3H]5HT from human recombinant 5HT1D receptor relative to control.
The target in data set [14] is T3, 5-hydroxytryptamine receptor 1A (Homo sapiens, UniProt P08908).
T3 sequence (P08908 whole entry): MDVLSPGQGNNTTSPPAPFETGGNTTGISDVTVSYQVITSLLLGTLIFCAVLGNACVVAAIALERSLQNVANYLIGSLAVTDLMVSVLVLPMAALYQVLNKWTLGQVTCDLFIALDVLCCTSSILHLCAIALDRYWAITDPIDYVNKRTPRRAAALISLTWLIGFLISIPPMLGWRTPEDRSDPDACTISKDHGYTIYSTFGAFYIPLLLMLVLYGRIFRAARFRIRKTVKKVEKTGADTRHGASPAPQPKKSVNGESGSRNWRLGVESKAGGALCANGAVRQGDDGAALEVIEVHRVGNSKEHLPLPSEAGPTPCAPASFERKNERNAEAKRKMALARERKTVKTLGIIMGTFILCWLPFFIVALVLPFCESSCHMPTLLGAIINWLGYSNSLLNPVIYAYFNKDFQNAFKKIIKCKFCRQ

The target of data set [15] is 5-hydroxytryptamine receptor 2B (Homo sapiens, UniProt P41595). Nature of the data set: Displacement of radioligand from human cloned 5HT2B receptor.
5-hydroxytryptamine receptor 2B, sequence (P41595 whole entry): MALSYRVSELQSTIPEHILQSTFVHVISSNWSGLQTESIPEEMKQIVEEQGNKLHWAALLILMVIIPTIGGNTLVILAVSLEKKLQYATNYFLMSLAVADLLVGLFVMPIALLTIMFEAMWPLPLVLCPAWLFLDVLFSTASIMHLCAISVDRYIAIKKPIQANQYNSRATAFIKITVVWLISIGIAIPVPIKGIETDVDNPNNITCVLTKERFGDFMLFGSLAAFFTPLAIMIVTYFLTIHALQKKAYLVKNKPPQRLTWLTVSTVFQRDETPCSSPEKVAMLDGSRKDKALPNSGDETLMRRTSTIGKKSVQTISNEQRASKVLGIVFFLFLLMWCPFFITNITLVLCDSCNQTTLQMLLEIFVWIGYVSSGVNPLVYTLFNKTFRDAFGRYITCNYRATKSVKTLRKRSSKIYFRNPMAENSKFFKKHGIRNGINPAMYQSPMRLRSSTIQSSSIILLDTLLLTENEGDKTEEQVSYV
The target in data set [16] is T4, 5-hydroxytryptamine receptor 1B (Homo sapiens, UniProt P28222). Nature of the data set: Displacement of [3H]5HT from human recombinant 5HT1B receptor relative to control.
T4 sequence (P28222 whole entry): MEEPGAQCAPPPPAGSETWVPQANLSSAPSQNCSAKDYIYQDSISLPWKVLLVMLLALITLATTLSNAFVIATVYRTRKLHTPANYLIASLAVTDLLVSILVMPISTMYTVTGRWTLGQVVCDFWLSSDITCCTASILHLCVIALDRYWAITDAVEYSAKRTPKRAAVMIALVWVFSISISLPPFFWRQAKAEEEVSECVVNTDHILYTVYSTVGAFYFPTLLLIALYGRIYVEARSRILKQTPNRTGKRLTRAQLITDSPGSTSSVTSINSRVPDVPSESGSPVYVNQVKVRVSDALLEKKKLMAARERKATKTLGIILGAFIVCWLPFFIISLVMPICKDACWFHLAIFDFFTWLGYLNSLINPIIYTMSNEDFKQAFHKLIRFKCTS
Data set [17] addresses T4, 5-hydroxytryptamine receptor 1B.
Data set [18] can be described thus: Half life in rat at 1 mg/kg, iv. The format is ADME, organism-based. On the set-up: dose 1 mg/kg, route intravenous. The note with it: in vivo.
Data set [19] has as its target 5-hydroxytryptamine receptor 4 (Homo sapiens, UniProt Q13639). Nature of the data set: Displacement of radioligand from human cloned 5HT4 receptor.
Data set [20] has as its target T2, 5-hydroxytryptamine receptor 1D.
The next data set concerns the target D(2) dopamine receptor (Homo sapiens, UniProt P14416).
The target in data set [21] is T5, Alpha-1B adrenergic receptor (Homo sapiens, UniProt P35368).
T5 sequence (P35368 whole entry): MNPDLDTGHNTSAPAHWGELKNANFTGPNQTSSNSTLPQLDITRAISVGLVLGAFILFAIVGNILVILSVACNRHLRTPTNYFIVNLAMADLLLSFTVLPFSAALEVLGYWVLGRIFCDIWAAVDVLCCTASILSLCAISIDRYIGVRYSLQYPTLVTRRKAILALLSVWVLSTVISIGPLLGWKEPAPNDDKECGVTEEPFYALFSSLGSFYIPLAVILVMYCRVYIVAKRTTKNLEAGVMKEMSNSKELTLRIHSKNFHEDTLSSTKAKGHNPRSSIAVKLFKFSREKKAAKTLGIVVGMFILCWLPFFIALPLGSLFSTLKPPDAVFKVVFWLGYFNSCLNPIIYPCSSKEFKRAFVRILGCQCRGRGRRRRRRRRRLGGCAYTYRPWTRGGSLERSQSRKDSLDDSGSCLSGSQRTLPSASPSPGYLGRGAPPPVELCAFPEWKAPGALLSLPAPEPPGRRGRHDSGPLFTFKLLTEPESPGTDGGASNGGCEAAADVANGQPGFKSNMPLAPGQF
Nature of the data set: Displacement of radioligand from human cloned adrenergic Alpha-1B receptor.

In data set [22] the target is T6, 5-hydroxytryptamine receptor 2C (Homo sapiens, UniProt P28335).
T6 sequence (P28335 whole entry): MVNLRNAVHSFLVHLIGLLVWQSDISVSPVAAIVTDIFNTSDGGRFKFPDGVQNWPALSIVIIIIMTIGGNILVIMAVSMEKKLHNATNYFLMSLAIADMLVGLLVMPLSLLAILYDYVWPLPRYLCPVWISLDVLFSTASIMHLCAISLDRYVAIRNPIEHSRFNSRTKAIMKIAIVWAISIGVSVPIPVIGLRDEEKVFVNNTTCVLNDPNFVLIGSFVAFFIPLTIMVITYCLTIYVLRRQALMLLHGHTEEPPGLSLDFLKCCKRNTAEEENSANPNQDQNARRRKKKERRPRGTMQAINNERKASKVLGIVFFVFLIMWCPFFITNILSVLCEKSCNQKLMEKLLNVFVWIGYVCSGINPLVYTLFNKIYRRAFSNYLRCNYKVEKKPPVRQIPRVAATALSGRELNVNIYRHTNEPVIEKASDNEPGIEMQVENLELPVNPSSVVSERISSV
Nature of the data set: Displacement of radioligand from human cloned 5HT2C receptor.

The target of data set [23] is Beta-2 adrenergic receptor (Homo sapiens, UniProt P07550). Nature of the data set: Displacement of radioligand from human cloned adrenergic beta2 receptor.
Beta-2 adrenergic receptor, sequence (P07550 whole entry): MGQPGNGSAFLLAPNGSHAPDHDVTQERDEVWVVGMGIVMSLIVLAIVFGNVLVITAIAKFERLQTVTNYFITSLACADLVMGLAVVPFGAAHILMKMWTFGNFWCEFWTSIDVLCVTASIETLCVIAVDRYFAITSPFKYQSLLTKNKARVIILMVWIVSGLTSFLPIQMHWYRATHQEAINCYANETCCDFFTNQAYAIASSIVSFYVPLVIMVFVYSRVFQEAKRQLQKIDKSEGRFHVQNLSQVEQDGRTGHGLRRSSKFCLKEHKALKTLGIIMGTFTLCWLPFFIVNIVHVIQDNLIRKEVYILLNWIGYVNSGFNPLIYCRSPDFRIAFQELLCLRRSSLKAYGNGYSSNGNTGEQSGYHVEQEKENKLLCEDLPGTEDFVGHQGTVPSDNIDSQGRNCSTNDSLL
The subject of another data set is Rattus norvegicus. Nature of the data set: Reversal of SKF-99101-induced increase in seizure threshold in orally dosed rat by electroshock threshold test. The format is functional.

T2 sequence (P28221 whole entry): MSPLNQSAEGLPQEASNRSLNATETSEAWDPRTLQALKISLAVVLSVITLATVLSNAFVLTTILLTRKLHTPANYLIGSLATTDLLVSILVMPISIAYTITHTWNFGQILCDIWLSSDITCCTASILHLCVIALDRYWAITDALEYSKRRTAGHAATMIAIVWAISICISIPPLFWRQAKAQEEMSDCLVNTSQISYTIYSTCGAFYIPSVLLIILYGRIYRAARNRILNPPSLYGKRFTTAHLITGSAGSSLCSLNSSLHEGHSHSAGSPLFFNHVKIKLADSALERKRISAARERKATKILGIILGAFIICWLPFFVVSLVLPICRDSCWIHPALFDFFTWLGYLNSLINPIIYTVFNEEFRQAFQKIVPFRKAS
5-hydroxytryptamine receptor 6, sequence (P50406 whole entry): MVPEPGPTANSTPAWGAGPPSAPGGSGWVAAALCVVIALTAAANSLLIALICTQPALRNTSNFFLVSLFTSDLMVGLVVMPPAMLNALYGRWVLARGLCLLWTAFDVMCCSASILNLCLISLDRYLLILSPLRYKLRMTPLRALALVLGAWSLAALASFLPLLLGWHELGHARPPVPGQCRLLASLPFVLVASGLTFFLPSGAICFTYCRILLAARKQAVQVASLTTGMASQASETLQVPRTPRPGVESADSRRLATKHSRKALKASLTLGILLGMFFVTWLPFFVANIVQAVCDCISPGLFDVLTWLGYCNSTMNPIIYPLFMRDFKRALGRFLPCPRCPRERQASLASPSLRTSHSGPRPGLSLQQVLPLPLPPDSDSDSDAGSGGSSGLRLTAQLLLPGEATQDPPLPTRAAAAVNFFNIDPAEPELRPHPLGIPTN
Sodium-dependent serotonin transporter (Homo sapiens, UniProt P31645), sequence (P31645 whole entry): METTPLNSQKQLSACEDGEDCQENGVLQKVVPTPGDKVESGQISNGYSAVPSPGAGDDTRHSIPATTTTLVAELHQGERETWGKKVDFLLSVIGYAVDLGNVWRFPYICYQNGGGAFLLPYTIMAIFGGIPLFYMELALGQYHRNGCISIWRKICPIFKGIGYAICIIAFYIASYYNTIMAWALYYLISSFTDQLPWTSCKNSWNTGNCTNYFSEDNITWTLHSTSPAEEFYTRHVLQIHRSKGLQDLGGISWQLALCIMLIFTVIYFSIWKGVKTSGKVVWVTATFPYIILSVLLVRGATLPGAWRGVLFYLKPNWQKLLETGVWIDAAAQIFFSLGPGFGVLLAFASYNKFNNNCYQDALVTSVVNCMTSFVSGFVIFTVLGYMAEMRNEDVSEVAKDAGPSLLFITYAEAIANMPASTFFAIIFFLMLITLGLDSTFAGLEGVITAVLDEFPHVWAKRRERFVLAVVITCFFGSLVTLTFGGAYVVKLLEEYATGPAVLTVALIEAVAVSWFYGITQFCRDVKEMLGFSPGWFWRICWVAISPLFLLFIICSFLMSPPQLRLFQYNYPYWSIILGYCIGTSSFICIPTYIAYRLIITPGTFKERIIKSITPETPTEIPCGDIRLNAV
5-hydroxytryptamine receptor 4, sequence (Q13639 whole entry): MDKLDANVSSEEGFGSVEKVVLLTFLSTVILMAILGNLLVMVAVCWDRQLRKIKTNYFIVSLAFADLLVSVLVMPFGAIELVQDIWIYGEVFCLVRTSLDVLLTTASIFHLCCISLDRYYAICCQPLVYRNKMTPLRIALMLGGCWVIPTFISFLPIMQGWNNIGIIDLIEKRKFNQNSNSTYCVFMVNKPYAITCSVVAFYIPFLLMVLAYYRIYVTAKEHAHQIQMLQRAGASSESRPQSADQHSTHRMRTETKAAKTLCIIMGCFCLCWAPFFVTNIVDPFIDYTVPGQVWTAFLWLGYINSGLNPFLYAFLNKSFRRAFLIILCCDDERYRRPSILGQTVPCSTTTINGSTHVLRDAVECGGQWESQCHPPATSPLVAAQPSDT
5-hydroxytryptamine receptor 7, sequence (P34969 whole entry): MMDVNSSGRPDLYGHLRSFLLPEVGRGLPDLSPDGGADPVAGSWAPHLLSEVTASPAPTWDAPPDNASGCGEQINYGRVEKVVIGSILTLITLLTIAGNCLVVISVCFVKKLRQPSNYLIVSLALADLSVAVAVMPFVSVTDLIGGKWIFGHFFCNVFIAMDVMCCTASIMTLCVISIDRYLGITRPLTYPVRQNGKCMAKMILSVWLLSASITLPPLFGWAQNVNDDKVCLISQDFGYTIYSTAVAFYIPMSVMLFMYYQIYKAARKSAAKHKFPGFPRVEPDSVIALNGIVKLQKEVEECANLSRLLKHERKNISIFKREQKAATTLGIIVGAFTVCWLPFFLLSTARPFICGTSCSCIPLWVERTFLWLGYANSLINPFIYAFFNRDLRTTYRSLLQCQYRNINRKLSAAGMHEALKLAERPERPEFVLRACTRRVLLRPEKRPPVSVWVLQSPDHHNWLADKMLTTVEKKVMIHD
D(2) dopamine receptor, sequence (P14416 whole entry): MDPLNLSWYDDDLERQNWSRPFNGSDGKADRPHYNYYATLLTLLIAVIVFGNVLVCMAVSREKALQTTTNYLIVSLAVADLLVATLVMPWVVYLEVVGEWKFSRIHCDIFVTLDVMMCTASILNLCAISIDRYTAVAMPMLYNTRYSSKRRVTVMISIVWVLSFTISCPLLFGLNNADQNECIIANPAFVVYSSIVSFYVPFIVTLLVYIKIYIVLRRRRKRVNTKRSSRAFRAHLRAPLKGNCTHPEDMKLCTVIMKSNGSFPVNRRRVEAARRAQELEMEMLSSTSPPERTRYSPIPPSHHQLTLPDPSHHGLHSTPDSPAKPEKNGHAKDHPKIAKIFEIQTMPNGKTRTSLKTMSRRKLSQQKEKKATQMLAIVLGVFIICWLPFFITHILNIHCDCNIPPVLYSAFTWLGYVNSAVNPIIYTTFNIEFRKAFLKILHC
Description for D(2) dopamine receptor: Displacement of radioligand from human cloned dopamine D2 receptor

With `Cc1ccc2c(OCCN3CCC(Cc4cccc(N5CCCS5(=O)=O)c4)CC3)cccc2n1`, the Vd in data set [1] is 0.9 L/kg. The clearance in data set [2] came out at 39 mL/min/kg. Besides, the Ki in data set [3] is 0.398 µM; in data set [4], more than 6.31 µM; in [5] it was 1.58 µM; in data set [6], 1 µM; in data set [7], 0.0158 µM; in data set [8] it was 0.794 µM. Also, the inhibition constant Ki in data set [10] is 1.58 µM; in data set [12], more than 10 µM; in data set [14], 0.00794 µM; in data set [15] it was more than 1 µM; in data set [17], 0.0126 µM; in data set [19], 7.94 µM. In addition, the inhibition constant Ki was 0.00158 µM in [20]; 0.501 µM at D(2) dopamine receptor; 0.158 µM in [21]; more than 3.98 µM in [22]; 1.58 µM in data set [23]. In [9], the Kp came out at 0.9. Also, the peak concentration (Cmax) in [11] turned out to be 287 ng/g. Besides, the Intrinsic activity in [13] is 0.4; in data set [16], 0.5. Besides, the half-life in data set [18] is 54 min.
`Cc1ccc2c(OCCN3CCC(Cc4cccc(NS(C)(=O)=O)c4)CC3)cccc2n1`: the Vd in [1] was 1.6 L/kg. This molecule also showed a clearance in [2] of 38 mL/min/kg. The inhibition constant (Ki) in data set [3] was 1.58 µM; in [4], 2.51 µM; in data set [5], more than 10 µM; in data set [6] it was 0.501 µM; in data set [7], 0.02 µM; in data set [8], 1 µM. Also, the Ki in [10] was 1.26 µM; in data set [12], 2.51 µM; in data set [14], 0.00251 µM; in [15], 2 µM; in [17], 0.002 µM; in [19], more than 10 µM. In addition, the Ki in data set [20] is 0.000501 µM; at D(2) dopamine receptor, 0.0631 µM; in data set [21], 0.2 µM; in data set [22], more than 1 µM; in [23], 0.501 µM. Moreover, the Kp in [9] is 0.2. In [11], this molecule came in with a peak concentration (Cmax) of 346 ng/g. The Intrinsic activity in data set [16] worked out at 0.3. For the same molecule, the half-life in data set [18] was 36 min. Moreover, in the data set with Rattus norvegicus, the Activity entry was “Dose-dependent effect”.
